According to PubChem BioAssay AID602380 (Sanford-Burnham Center for Chemical Genomics, 2012):
Activity calls are given as the source filed them. The rule behind the calls is not given here.

Assay: TIM10 isogenic strain growth inhibitors – luminescence, S. cerevisiae, counter-screen for tim23-1 inhibitor project, SAR follow-up (AID 602380)
Settings: S. cerevisiae TIM10 isogenic control strain, BacTiter-Glo growth luminescence

SMILES: O=C(N/N=C/C(Cl)=C\c1ccccc1)c1cccs1
- IC50: 9.48 µM

SMILES: Cc1nc2scc(C)n2c(=O)c1S(=O)(=O)Nc1ccc(N2CCN(S(C)(=O)=O)CC2)cc1
- IC50: > 99 µM (inactive)

SMILES: N/C(=N\OC(=O)c1ccc(Cl)cc1)c1cccc(CS(=O)(=O)c2ccccn2)c1
- IC50: 19.2 µM

SMILES: CCCN(C(=O)c1ccc([N+](=O)[O-])c(C)c1)c1c(N)n(Cc2ccccc2)c(=O)[nH]c1=O
- IC50: > 99 µM (inactive)

SMILES: N#Cc1ccc(C2N=C(c3ccccc3)NO2)cc1 (stereo not given)
- IC50: > 99 µM (inactive)

SMILES: Cc1ccc2nc(CS(=O)(=O)c3ncccc3Cl)cc(=O)n2c1
- IC50: > 99 µM (inactive)

SMILES: CCOc1ccc(C(=O)O/N=C(\N)c2ccc(OC)cc2)cc1OCC
- IC50: 5.57 µM

SMILES: CN1CCc2nc3sc(C(=O)C45CC6CC(CC(C6)C4)C5)c(N)c3cc2C1
- IC50: 42.1 µM

SMILES: N#Cc1c(-c2ccc([N+](=O)[O-])cc2)cc(-c2ccccc2)nc1N
- IC50: > 99 µM (inactive)

SMILES: Cc1ccc(Nc2nc(-c3cccnc3)nc3ccccc23)cc1
- IC50: 4.04 µM

SMILES: CC(C)(C)c1csc(NC(=O)c2ccc(Cl)s2)n1
- IC50: 9.68 µM

SMILES: O=C(CSc1cccc[n+]1[O-])Nc1ccccc1Oc1ccccc1
- IC50: 0.806 µM

SMILES: Cc1cccn2c(=O)cc(CSc3cc(C(=O)NC4CC4)c4ccccc4n3)nc12
- IC50: > 99 µM (inactive)

SMILES: Cc1nc2scc(C)n2c(=O)c1S(=O)(=O)Nc1ccc(N2CCOCC2)c(Cl)c1
- IC50: > 99 µM (inactive)

SMILES: COc1ccc([N+](=O)[O-])cc1NS(=O)(=O)c1c(C)nc2scc(C)n2c1=O
- IC50: > 99 µM (inactive)

SMILES: N/C(=N\OC(=O)c1ccc(Cl)c(Cl)c1)c1cccc(CS(=O)(=O)c2ccccn2)c1
- IC50: 15.6 µM

SMILES: Cc1nc2sc(C)c(C)n2c(=O)c1S(=O)(=O)Nc1ccc(Br)cc1
- IC50: > 99 µM (inactive)

SMILES: O=C(Nc1ccc(-c2cn3ccccc3n2)cc1)c1cccs1
- IC50: 7.93 µM

SMILES: Cc1ccc(-c2cc(NC(=O)c3c(C)noc3C)nc(-c3ccccc3)c2)cc1
- IC50: > 99 µM (inactive)

SMILES: N/C(=N\OC(=O)c1ccccc1)c1ccc(F)cc1F
- IC50: 16.7 µM

SMILES: N/C(=N\OC(=O)c1ccc(F)cc1)c1ccc(Br)cc1
- IC50: 39.8 µM

SMILES: Cc1ccc2nc(CSc3ncc(C(F)(F)F)cc3Cl)cc(=O)n2c1
- IC50: > 99 µM (inactive)

SMILES: Cc1nc2scc(C)n2c(=O)c1S(=O)(=O)Nc1ccc(Cl)c(C(F)(F)F)c1
- IC50: 91.1 µM

SMILES: CCN(C(=O)c1cccc2ncccc12)c1c(N)n(Cc2ccccc2)c(=O)[nH]c1=O
- IC50: > 99 µM (inactive)

SMILES: Cc1nc(SCc2cc(=O)n3cc(Br)ccc3n2)c(C#N)c(C)c1C
- IC50: > 99 µM (inactive)

SMILES: Cc1cc(OCC(=O)O/N=C(\N)Cc2ccc(Cl)cc2)ccc1Br
- IC50: 2.1 µM

SMILES: O=C1OC(c2ccccc2)=N/C1=C\C=C\c1ccco1
- IC50: 6.78 µM

SMILES: Cc1nc2scc(C)n2c(=O)c1S(=O)(=O)Nc1ccc(F)cc1Cl
- IC50: 68.1 µM

SMILES: Cc1ccc2nc(N3C(=O)CNC3=S)sc2c1
- IC50: 6.81 µM

SMILES: Cc1nc2scc(C)n2c(=O)c1S(=O)(=O)Nc1ccc(OC(F)(F)F)cc1
- IC50: 21.6 µM

SMILES: Cc1nc2scc(C)n2c(=O)c1S(=O)(=O)Nc1ccc(Oc2ccc(Cl)cc2)cc1
- IC50: > 99 µM (inactive)

SMILES: Cc1noc(C)c1S(=O)(=O)Nc1ccc(-c2cn3c(n2)SCC3)cc1
- IC50: 79.2 µM

SMILES: Cc1nc2scc(C)n2c(=O)c1S(=O)(=O)Nc1ccc(N2CCN(C(=O)C(C)C)CC2)cc1
- IC50: > 99 µM (inactive)

SMILES: Cc1nc2scc(C)n2c(=O)c1S(=O)(=O)Nc1ccc(CN2CCCCC2)cc1
- IC50: > 99 µM (inactive)

SMILES: CN(C(=O)c1cccc(S(C)(=O)=O)c1)c1c(N)n(Cc2ccccc2)c(=O)[nH]c1=O
- IC50: > 99 µM (inactive)

SMILES: Cc1ccc(C2=NNC(c3ccc(Cl)cc3Cl)S2)cc1 (stereo not given)
- IC50: 5.15 µM

SMILES: Oc1ccc(Oc2ccc(Oc3ccc(O)cc3)cc2)cc1
- IC50: 5.69 µM

SMILES: N#Cc1c(-c2ccccc2)cc(-c2ccc(O)cc2)nc1N
- IC50: 4.52 µM

SMILES: N#C/C(=C\c1ccc(Cl)cc1)C(=O)Nc1cccnc1
- IC50: 14.2 µM

SMILES: CN1CCN(c2nc(-c3cccnc3)nc3ccccc23)CC1
- IC50: > 99 µM (inactive)
